Earlier results on two molecules are cited in US7632656B2, “High performance liquid chromatography with an aqueous mobile phase for analysis of drug and its metabolite” (Cellseed Inc., priority 2003, dated 2009).

What is called logP is a log measure of how a compound divides between an organic and an aqueous phase.

The conditions of this series: listed with the structures of the CYP probe drugs; method not stated.

Turning to `CCOc1ccc(NC(C)=O)cc1` [Phenacetin], the logP is recorded as 0.985. For the molecule `CC12CCC(=O)C=C1CCC1C2CCC2(C)C(O)CCC12` (centres unmarked) [Testosterone], the logP is 2.899.
